Legend:
[1] = tested on: Staphylococcal isolates associated with joint or tissue infections; experiment: deferred antagonism method, inhibition of clinical Staphylococcal isolates; type: cell-based, Staphylococci; set-up: key to Inhibition caused by NI01: NI indicates no inhibition; 1+: on a score of 1-3; 2+: on a score of 1-3; 3+: on a score of 1-3
S. epidermidis = experiment: MIC by micro-dilution (BSAC); type: cell-based;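 further: MIC in µg/ml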
S. saprophyticus = experiment: MIC by micro-dilution (BSAC); type: cell-based
S. hominis = experiment: MIC by micro-dilution (BSAC); type: cell-based
S. warneri = experiment: MIC by micro-dilution (BSAC); type: cell-based
MRSA (EMRSA 15) = experiment: MIC by micro-dilution (BSAC); type: cell-based;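 further: MIC in µg/ml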
S. aureus 1195 = experiment: MIC by micro-dilution (BSAC); type: cell-based
Enterococcus faecalis = experiment: MIC by micro-dilution (BSAC); type: cell-based
[2] = tested on: Vancomycin resistant Enterococcus faecalis; experiment: MIC by micro-dilution (BSAC); type: cell-based
Streptococcus mutans = experiment: MIC by micro-dilution (BSAC); type: cell-based;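 further: MIC in µg/ml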
Bacillus cereus = experiment: MIC by micro-dilution (BSAC); type: cell-based
Bacillus subtillis = experiment: MIC by micro-dilution (BSAC); type: cell-based
Listeria monocytogenes = experiment: MIC by micro-dilution (BSAC); type: cell-based
Propionibacterium acnes = experiment: spot on lawn method; type: cell-based; settings: purified preparations of NI01, spot on lawn method
pH stability = type: physicochemical
strain 156 biofilm = experiment: biofilm formation on peptide-coated polyethylene beads; type: cell-based, Staphylococcus epidermidis; settings: beads submerged in semi-pure peptide 2 hours, inoculum 3×10^8 cfu/ml of strain 156, p=0.000
[3] = tested on: reference strain RP62a, gentamicin resistant clinical isolate 53 and gentamicin sensitive isolate 156; experiment: single-step (spontaneous) mutation tests; type: cell-based, S. epidermidis; settings: two, four and eight times the MIC; strains RP62a, 53 and 156; no evidence of mutation
[4] = tested on: clinical biofilm forming strains of CNS Staphylococci species associated with prosthetic joint infections; experiment: passaging in sub-inhibitory concentrations; type: cell-based; settings: for MIC after passaging: sub-inhibitory concentrations
S. epidermidis 156 = experiment: viability, optical density and Gram staining after addition of peptide; type: cell-based
S. epidermidis s42 [5] = experiment: membrane potential, DiSC3(5) assay; type: cell-based; settings: all concentrations assessed; levels exceeded positive control nisin 10×MIC
Text: (§1) Results are expressed as % of positive control and that NI01 causes concentration dependent release of potassium from indicator cells with 100% being released at the highest concentration of NI01 assessed (10×MIC).
In summary, mode of action studies, using DiSC3(5) [3,3′-Dipropylthiadicarbocyanine iodide] assays, indicate that NI01 depolarises the membrane (FIG. 12) of the a Staphylococcus epidermidis strain resulting in loss of potassium (FIG. 13) and ATP (FIG. 14).

S. epidermidis s42 [6] = experiment: potassium release, K+ sensitive fluorescent dye PBFI; type: cell-based; settings: highest concentration, 10×MIC
Text: as §1

S. epidermidis s42 [7] = experiment: ATP release; type: cell-based; settings: 10×MIC
[8] = enzyme stability of the peptide (activity in AU/ml after enzyme treatment)
[9] = Strain 11, gentamicin and methicillin resistant clinical isolate
[10] = Strain 12, gentamicin resistant clinical isolate
[11] = following treatment with protease

Substance: peptide NI01: antimicrobial peptide (bacteriocin, SEQ ID NO:3) obtained from a Staphylococcal culture; C terminal sequence QSFEWIYKQIKKLWA (MAAFMKLIQFLATKGQKYVSLAWKHKGTILKWINAGQSFEWIYKQIKKLWA; NOI01 polypeptide)
- Inhibition caused by NI01 ([1]; isolate 5133, Tissue (acetabulum), resistance: flu): 2+
- Inhibition caused by NI01 ([1]; isolate S1, Tissue, resistance: meth, pen, ery, amp, flu, gen, trim, cip): 2+
- Inhibition caused by NI01 ([1]; isolate S2, Joint fluid, resistance: pen, ery, amp, flu, gen, trim, cip): 2+
- Inhibition caused by NI01 ([1]; isolate S4, Tissue, resistance: meth, flu, gen, trim): 3+
- Inhibition caused by NI01 ([1]; isolate S5, Tissue, resistance: met): 3+
- Inhibition caused by NI01 ([1]; isolate S6, Femoral canal, resistance: flu, ery, gen, rif, cip): 1+
- Inhibition caused by NI01 ([1]; isolate S7, Femoral canal, sensitive): 1+
- Inhibition caused by NI01 ([1]; isolate S8, Tissue, resistance: flu, ery, gen, rif, cip): 1+
- Inhibition caused by NI01 ([1]; isolate S9, Tissue, resistance: flu, ery, gen, rif, cip): 3+
- Inhibition caused by NI01 ([1]; isolate S10, Tissue, resistance: flu, ery, gen, rif, cip): 1+
- Inhibition caused by NI01 ([1]; isolate S11, Tissue, resistance: flu, ery, gen, rif, cip): 2+
- Inhibition caused by NI01 ([1]; isolate S12, Tissue, resistance: flu, ery, rif, cip): 1+
- Inhibition caused by NI01 ([1]; isolate S13, Swab, resistance: flu, ery, gen, rif, cip): 1+
- Inhibition caused by NI01 ([1]; isolate S25, Swab (left hip joint), resistance: meth, gen): 2+
- Inhibition caused by NI01 ([1]; isolate S28, Tissue (femoral canal), resistance: meth, gen): 3+
- Inhibition caused by NI01 ([1]; isolate S30, Tissue (left capsule), resistance: meth): 3+
- Inhibition caused by NI01 ([1]; isolate S31, Swab (joint), sensitive): 2+
- Inhibition caused by NI01 ([1]; isolate S37, Tissue (knee), sensitive): 2+
- Inhibition caused by NI01 ([1]; isolate S39, Tissue (right knee), resistance: meth, flu, fus, cip): 1+
- Inhibition caused by NI01 ([1]; isolate S40, Tissue (right knee), resistance: meth, flu, ery, fus, clin, cip): 1+
- Inhibition caused by NI01 ([1]; isolate S41, Tissue (femoral canal), resistance: meth, flu, fus, cip): 1+
- Inhibition caused by NI01 ([1]; isolate S42, Tissue (right knee), resistance: meth, flu, fus, cip): NI
- Inhibition caused by NI01 ([1]; isolate S43, Swab (right hip joint), resistance: meth, flu, ery, fus, clin, cip): NI
- Inhibition caused by NI01 ([1]; isolate S44, Swab (right hip joint), resistance: meth, flu, ery): NI
- Inhibition caused by NI01 ([1]; isolate S46, Swab (right hip joint), resistance: meth, flu, gen, fus, cip): NI
- Inhibition caused by NI01 ([1]; isolate S47, Swab (tibia), resistance: meth, flu, ery, gen, fus, cip): NI
- Inhibition caused by NI01 ([1]; isolate S48, Tissue (left knee), resistance: meth, flu, ery, gen, fus, cip): 1+
- Inhibition caused by NI01 ([1]; isolate S49, Tissue (left knee), resistance: meth, flu, ery, gen, fus, cip): 2+
- Inhibition caused by NI01 ([1]; isolate S52, Tissue (right hip joint), resistance: gen, cip): 2+
- Inhibition caused by NI01 ([1]; isolate S53, Swab (femur), resistance: gen, cip, fus): 2+
- Inhibition caused by NI01 ([1]; isolate S56, Tissue (right hip joint), sensitive): 2+
- Inhibition caused by NI01 ([1]; isolate S60, Tissue (femur), resistance: gen, trim): NI
- Inhibition caused by NI01 ([1]; isolate S71, Swab (femur), resistance: flu): 2+
- Inhibition caused by NI01 ([1]; isolate S78, Tissue (right elbow), resistance: flu, ery): 1+
- Inhibition caused by NI01 ([1]; isolate S79, Pus (right elbow), resistance: meth, flu, ery): 1+
- Inhibition caused by NI01 ([1]; isolate S80, Tissue (triceps), resistance: flu, ery): 1+
- Inhibition caused by NI01 ([1]; isolate S81, Pus (right elbow), resistance: flu, ery): 1+
- Inhibition caused by NI01 ([1]; isolate S82, Tissue (right elbow), resistance: flu, ery): 1+
- Inhibition caused by NI01 ([1]; isolate S83, Tissue (next to bone), resistance: flu, ery): 1+
- Inhibition caused by NI01 ([1]; isolate S85, Tissue (left elbow), resistance: meth, ery): 1+
- Inhibition caused by NI01 ([1]; isolate S86, Swab (right elbow), sensitive): 2+
- Inhibition caused by NI01 ([1]; isolate S88, Swab (left hip), sensitive): 1+
- Inhibition caused by NI01 ([1]; isolate S89, Tissue (right elbow), resistance: meth, flu, ery): 1+
- Inhibition caused by NI01 ([1]; isolate S90, Ulcer, resistance: flu, ery): 2+
- Inhibition caused by NI01 ([1]; isolate S91, Swab (right acetabulum), resistance: flu): 2+
- Inhibition caused by NI01 ([1]; isolate S92, Swab (femur), resistance: flu): 1+
- Inhibition caused by NI01 ([1]; isolate S93, Tissue (wound), resistance: flu, ery, gen, fus): NI
- Inhibition caused by NI01 ([1]; isolate S94, Tissue (right femur), resistance: flu): 3+
- Inhibition caused by NI01 ([1]; isolate S95, Tissue (right femur), resistance: flu, trim): 3+
- Inhibition caused by NI01 ([1]; isolate S96, Tissue (right femur), resistance: flu): 1+
- Inhibition caused by NI01 ([1]; isolate S97, Tissue (acetabulum), resistance: flu): 3+
- Inhibition caused by NI01 ([1]; isolate S106, Neck of femur, resistance: ery, fus): 3+
- Inhibition caused by NI01 ([1]; isolate S127, Tissue (screw holes), resistance: flu): 1+
- Inhibition caused by NI01 ([1]; isolate S128, Tissue (under plate), resistance: meth, flu): 1+
- Inhibition caused by NI01 ([1]; isolate S156, Tissue (acetabulum), resistance: ery, fus): 3+
- Inhibition caused by NI01 ([1]; isolate S159, Swab (right thigh), resistance: meth, flu, ery): 1+
- Inhibition caused by NI01 ([1]; isolate S160, Swab (right hip), resistance: meth, flu, gen): 2+
- Inhibition caused by NI01 ([1]; isolate S161, Swab (right hip sinus), resistance: flu, ery, gen, fus, cip): 2+
- Inhibition caused by NI01 ([1]; isolate S163, Tissue (right hip), resistance: flu, ery, gen, fus, cip): 1+
- Inhibition caused by NI01 ([1]; isolate S164, Tissue (right hip), resistance: ery, fus, amp, clin): NI
- inhibitory effect, score ([1]; isolate Staphylococcus epidermis 156, biofilm forming, from infected acetabulum tissue, over a 100 hour period (FIG. 5)): +3
- clinical biofilm forming isolates of Staphylococci inhibited ([1]; isolates associated with joint and/or tissue infections, summary of Table 1): 58 out of the 60
- clinical biofilm forming isolates of Staphylococci inhibited, percent ([1]; summary of Table 1): 91%
- MIC (S. epidermidis; S. epidermidis RP62a): 2 to 4 µg/mL
- MIC (S. epidermidis; S. epidermidis s1): 1 µg/mL
- MIC (S. epidermidis; S. epidermidis s2): 4 µg/mL
- MIC (S. epidermidis; S. epidermidis s37): 2 µg/mL
- MIC (S. epidermidis; S. epidermidis s42): 2 µg/mL
- MIC (S. epidermidis; S. epidermidis s44): 4 µg/mL
- MIC (S. epidermidis; S. epidermidis s60): 2 µg/mL
- MIC (S. epidermidis; S. epidermidis s93): 2 µg/mL
- MIC (S. epidermidis; S. epidermidis s156): 0.0625 µg/mL
- MIC (S. saprophyticus): 0.5 to 1 µg/mL
- MIC (S. hominis): 1 µg/mL
- MIC (S. warneri): 1 µg/mL
- MIC (MRSA (EMRSA 15); MRSA s37 (EMRSA 15)): 1 to 2 µg/mL
- MIC (MRSA (EMRSA 15); MRSA s41 (EMRSA 15)): 1 to 2 µg/mL
- MIC (MRSA (EMRSA 15); MRSA s71 (EMRSA 15)): 2 µg/mL
- MIC (S. aureus 1195): 2 µg/mL
- MIC (Enterococcus faecalis): 1 µg/mL
- MIC ([2]; Vancomycin resistant Enterococcus faecalis 1): 1 µg/mL
- MIC ([2]; Vancomycin resistant Enterococcus faecalis 2): 1 µg/mL
- MIC ([2]; Vancomycin resistant Enterococcus faecalis 3): 1 µg/mL
- MIC ([2]; Vancomycin resistant Enterococcus faecalis 4): 1 to 2 µg/mL
- MIC ([2]; Vancomycin resistant Enterococcus faecalis 5): 0.5 to 1 µg/mL
- MIC ([2]; Vancomycin resistant Enterococcus faecalis 6): 0.5 µg/mL
- MIC (Streptococcus mutans; Streptococcus mutans 263): 2 µg/mL
- MIC (Streptococcus mutans; Streptococcus mutans 313): 0.12 µg/mL
- MIC (Bacillus cereus): <0.125 µg/mL
- MIC (Bacillus subtillis): <0.125 µg/mL
- MIC (Listeria monocytogenes): <0.125 µg/mL
- activity against Propionibacterium acnes (Propionibacterium acnes): activity
- activity lost (pH stability; acidic pH 2): about 5%
- activity lost (pH stability; alkaline pH 10): 12%
- activity retained (pH stability; between pH 4-8): 100%
- reduction of biofilm on coated versus uncoated polyethylene beads (strain 156 biofilm): 2.85 log units
- mutation (single-step mutation tests) [3]: < 1.5×10^8 cfu/ml
- MIC before passaging [4, 9]: 7800 µg/mL
- MIC after passaging [4, 9]: 15600 µg/mL
- MIC before passaging [4, 10]: 3900 µg/mL
- MIC after passaging [4, 10]: 7800 µg/mL
- change in MIC after passaging ([4]; all of the other strains tested (of twelve)): no change
- stained cells per field of view (Gram stain) following addition of peptide (S. epidermidis 156; at least 150 small cocci per field prior to addition): less than 20 cells per field of view
- type of activity against the target bacterium (S. epidermidis 156; from cfu count and optical density): bactericidal, but non-lytic
- cfu count after addition of peptide (S. epidermidis 156; peptide added at T=30, decrease not as pronounced in optical density): rapid decrease
- effect on membrane potential (S. epidermidis s42 [5]): rapidly depolarized the membrane
- potassium release (S. epidermidis s42 [6]): 100 % of positive control
- ATP released (S. epidermidis s42 [7]): > 65 % of positive control
- haemolysis (haemolysis): not haemolytic
- cells that looked apoptotic (vero cells): 10-20%
- damage to vero cells (vero cells): No significant damage
- activity after treatment [8, 11]: 160 AU/ml
- reduction in activity [8, 11]: 75%
- activity before enzyme treatment ([8]; partially purified peptide, starting activity): 640 AU/ml
- activity after treatment ([8]; treatment with trypsin): 320 AU/ml
- reduction of activity ([8]; treatment with trypsin): 50%

— patent US9428551B2, “Antimicrobial peptides” (priority 2009, dated 2016)
